Test results: patent publication EP0565593B1, “REDUCING PESTICIDAL INTERACTIONS IN CROPS” (priority 1990, dated 1992)
Where “and” joins values, the source holds several entries; their conditions need not be identical. Equal values may be shown once. Read-outs that look alike come from different tables or passages of the source.

Legend:
[1] = tested on: velvetleaf (Abutilon theophrasti); assay: Greenhouse test, combination of Procedures II and III (Examples 1, 2; Tables 1, 2); format: in vivo; details: for % Injury VELE: 3 weeks; for Percent Injury VELE: 7 weeks
SJCA = assay: Greenhouse test Procedure IV: herbicide, biocide and antidote PPI, weed SJCA (Examples 53-55; Tables 52-54); format: in vivo; details: all PPI; for % Inhibition SJCA: Herbicide No. 1, rate printed as '-'
Text: The test in this example paralleled that in Example 51, except the procedure was according to Procedure IV above and the herbicides used were No. 1 (MON-12000); No. 21 (XRD-498) and, again, No. 18 (PURSUIT); the biocide was, again, MOCAP®. Observations were taken thirteen (13) days after PPI treatment with biocide and antidote.
This test was identical to that in Example 52, except for use of a different biocide, DIAZINON (Biocide No. 5, a nematicide and soil insecticide).
This test was also identical to that in the preceding two examples, except that the biocide was malathion (No. 7, an insecticide).
This test was identical to the preceding ones, except the biocide was DPX-43898 (No. 6, active ingredient in FORTRESS® insecticide, a soil insecticide). Also, the observation time was fourteen (14) days after PPI initiation.

Corn = assay: whole plant or invertebrate; details: Zea mays, iv, 312 h

What does the source list for `COC(=O)c1c(Cl)nn(C)c1S(=O)(=O)NC(=O)Nc1nc(OC)cc(OC)n1` [Herbicide No. 1, N-[(4,6-dimethoxypyrimidin-2-yl)aminocarbonyl]-3-chloro-4-methoxycarbonyl-5-sulfonamide, reference compound]?
% Injury VELE ([1]; Ex. 2: Herbicide 1 0.14 Kg/Ha): 89%; % Injury VELE ([1]; Ex. 2: Herbicide 1 0.56 Kg/Ha): 93%; % Injury VELE ([1]; Ex. 2: Insecticide 1 0.11 kg/305m + Herbicide 1 0.14 Kg/Ha): 93%; % Injury VELE ([1]; Ex. 2: Insecticide 1 0.11 kg/305m + Herbicide 1 0.56 Kg/Ha): 94%; % Injury VELE ([1]; Ex. 2: Insecticide 1 0.23 Kg/305m + Herbicide 1 0.14 + Herbicide 2 4.48 Kg/Ha): 95%; % Injury VELE ([1]; Ex. 2: Insecticide 1 0.23 Kg/305m + Herbicide 1 0.14 Kg/Ha): 83%; % Injury VELE ([1]; Ex. 2: Insecticide 1 0.23 Kg/305m + Herbicide 1 0.56 Kg/Ha): 95%; % Injury VELE ([1]; Ex. 2: Insecticide 2 3.36 Kg/Ha + Herbicide 1 0.14 + Herbicide 2 4.48 Kg/Ha): 88%; Percent Injury VELE ([1]; Herbicide 1 0.14 Kg/Ha): 90%; Percent Injury VELE ([1]; Herbicide 1 0.56 Kg/Ha): 95%; Percent Injury VELE ([1]; Herbicide 1 2.24 Kg/Ha): 92%; Percent Injury VELE ([1]; Insecticide 1 0.23 kg/305m + Herbicide 1 0.14 Kg/Ha): 90%; Percent Injury VELE ([1]; Insecticide 1 0.23 kg/305m + Herbicide 1 0.56 Kg/Ha): 92%; Percent Injury VELE ([1]; Insecticide 1 0.23 kg/305m + Herbicide 1 2.24 Kg/Ha): 95%; Percent Injury VELE ([1]; Insecticide 2 3.36 kg/ha + Herbicide 1 0.14 Kg/Ha): 78%; Percent Injury VELE ([1]; Insecticide 2 3.36 kg/ha + Herbicide 1 0.56 Kg/Ha): 92%; Percent Injury VELE ([1]; Insecticide 2 3.36 kg/ha + Herbicide 1 2.24 Kg/Ha): 92%; inhibition at 140 g/ha (SJCA; 312 h, Table 52, Herbicide No. 1 0.14 Kg/Ha, where applied Biocide No. 5 8.96 kg/Ha and antidote 4.48 Kg/Ha, observed 13 days after treatment): 70%; % Inhibition SJCA (SJCA; Table 53, where applied Biocide No. 7 8.96 kg/Ha and antidote 4.48 Kg/Ha, observed 13 days after treatment): 75%; % Inhibition SJCA (SJCA; Table 54, where applied Biocide No. 6 8.96 kg/Ha and antidote 4.48 Kg/Ha, observed 14 days after PPI initiation): 65%; inhibition at 140 g/ha (Corn; read-out: % Inhibition Corn, Herb. No. 1 0.14 kg/Ha alone, PPI, 13 days after planting): 10%; inhibition at 140 g/ha (Corn; read-out: % Inhibition Corn, Table 51, Herbicide No. 1 0.14 Kg/Ha, where applied Biocide No. 8 8.96 kg/Ha and antidote 4.48 Kg/Ha, all PPI, observed 13 days after treatment): 0%; inhibition at 140 g/ha (Corn; read-out: % Inhibition Corn, Table 52, Herbicide No. 1 0.14 Kg/Ha, where applied Biocide No. 5 8.96 kg/Ha and antidote 4.48 Kg/Ha, all PPI, observed 13 days after treatment): 0%

With `CC1(C)OC(c2ccco2)CN1C(=O)C(Cl)Cl` (stereo not shown) [Antidote No. 1, Oxazolidine, 3-(dichloroacetyl)-2,2-dimethyl-5-(2-furanyl)-] as the molecule, how does the “Percent Injury VELE” value ([1]; Antidote 1 0.14 + Herbicide 1 0.14 Kg/Ha) read?
Its value is 88%.

What about the “Percent Injury VELE” value ([1]; Antidote 1 0.56 + Herbicide 1 0.56 Kg/Ha) of the same molecule?
Its value is 92%.

And the “Percent Injury VELE” value ([1]; Antidote 1 2.24 + Herbicide 1 2.24 Kg/Ha)?
Its value is 93%.

What about the “Percent Injury VELE” value ([1]; Antidote 1 2.24 Kg/Ha alone) of the same molecule?
Its value is 0%.

And the “% Injury VELE” value ([1]; Ex. 2: Antidote 1 0.14 + Herbicide 1 0.14 Kg/Ha)?
The value was 86%.

And the “% Injury VELE” value ([1]; Ex. 2: Antidote 1 0.42 + Herbicide 1 0.14 Kg/Ha)?
The value was 93%.

What about the “% Injury VELE” value ([1]; Ex. 2: Antidote 1 0.56 + Herbicide 1 0.56 Kg/Ha) of the same molecule?
Its value is 90%.

What about the “% Injury VELE” value ([1]; Ex. 2: Antidote 1 1.68 + Herbicide 1 0.56 Kg/Ha) of the same molecule?
Its value is 95%.

What about the “% Injury VELE” value ([1]; Ex. 2: Insecticide 1 0.11 kg/305m + Antidote 1 0.14 + Herbicide 1 0.14 Kg/Ha) of the same molecule?
The value was 78%.

And the “% Injury VELE” value ([1]; Ex. 2: Insecticide 1 0.11 kg/305m + Antidote 1 0.42 + Herbicide 1 0.14 Kg/Ha)?
The value was 84%.

And the “% Injury VELE” value ([1]; Ex. 2: Insecticide 1 0.11 kg/305m + Antidote 1 0.56 + Herbicide 1 0.56 Kg/Ha)?
Its value is 93%.

What about the “% Injury VELE” value ([1]; Ex. 2: Insecticide 1 0.11 kg/305m + Antidote 1 1.68 + Herbicide 1 0.56 Kg/Ha) of the same molecule?
Its value is 95%.

And the “% Injury VELE” value ([1]; Ex. 2: Insecticide 1 0.23 Kg/305m (ditto mark) + Antidote 1 0.22 + Herbicide 2 4.48 Kg/Ha (so in the source))?
The value was 36% and 38%.

And the “% Injury VELE” value ([1]; Ex. 2: Insecticide 1 0.23 Kg/305m + Antidote 1 0.14 + Herbicide 1 0.14 Kg/Ha)?
Its value is 83%.

And the “% Injury VELE” value ([1]; Ex. 2: Insecticide 1 0.23 Kg/305m + Antidote 1 0.22 + Herbicide 1 0.14 + Herbicide 2 4.48 Kg/Ha)?
The value was 98%.

And the “% Injury VELE” value ([1]; Ex. 2: Insecticide 1 0.23 Kg/305m + Antidote 1 0.42 + Herbicide 1 0.14 Kg/Ha)?
Its value is 90%.

What about the “% Injury VELE” value ([1]; Ex. 2: Insecticide 1 0.23 Kg/305m + Antidote 1 0.56 + Herbicide 1 0.56 Kg/Ha) of the same molecule?
Its value is 95%.

And the “% Injury VELE” value ([1]; Ex. 2: Insecticide 1 0.23 Kg/305m + Antidote 1 1.68 + Herbicide 1 0.56 Kg/Ha)?
The value was 93%.

What about the “% Injury VELE” value ([1]; Ex. 2: Insecticide 2 1.68 kg/Ha + Antidote 1 0.14 + Herbicide 1 0.14 Kg/Ha (so in the source)) of the same molecule?
Its value is 91% and 84% and 79%.

What about the “% Injury VELE” value ([1]; Ex. 2: Insecticide 2 1.68 kg/Ha + Antidote 1 0.56 + Herbicide 1 0.56 Kg/Ha (so in the source)) of the same molecule?
Its value is 90% and 89% and 91%.

What about the “% Injury VELE” value ([1]; Ex. 2: Insecticide 2 3.36 Kg/Ha + Antidote 1 0.14 + Herbicide 1 0.14 Kg/Ha (so in the source)) of the same molecule?
Its value is 81% and 79% and 89%.

What about the “% Injury VELE” value ([1]; Ex. 2: Insecticide 2 3.36 Kg/Ha + Antidote 1 0.22 + Herbicide 1 0.14 + Herbicide 2 4.48 Kg/Ha) of the same molecule?
Its value is 83%.

What about the “% Injury VELE” value ([1]; Ex. 2: Insecticide 2 3.36 Kg/Ha + Antidote 1 0.22 + Herbicide 2 4.48 Kg/Ha) of the same molecule?
The value was 11%.

And the “% Injury VELE” value ([1]; Ex. 2: Insecticide 2 3.36 Kg/Ha + Antidote 1 0.56 + Herbicide 1 0.56 Kg/Ha (so in the source))?
Its value is 95%.

What about the “Percent Injury VELE” value ([1]; Insecticide 1 0.23 kg/305m + Antidote 1 0.14 + Herbicide 1 0.14 Kg/Ha) of the same molecule?
The value was 87%.

What about the “Percent Injury VELE” value ([1]; Insecticide 1 0.23 kg/305m + Antidote 1 0.14 Kg/Ha, no herbicide) of the same molecule?
Its value is 0%.

What about the “Percent Injury VELE” value ([1]; Insecticide 1 0.23 kg/305m + Antidote 1 0.56 + Herbicide 1 0.56 Kg/Ha) of the same molecule?
Its value is 90%.

And the “Percent Injury VELE” value ([1]; Insecticide 1 0.23 kg/305m + Antidote 1 0.56 Kg/Ha, no herbicide)?
Its value is 0%.

And the “Percent Injury VELE” value ([1]; Insecticide 1 0.23 kg/305m + Antidote 1 2.24 + Herbicide 1 2.24 Kg/Ha)?
The value was 92%.

What about the “Percent Injury VELE” value ([1]; Insecticide 1 0.23 kg/305m + Antidote 1 2.24 Kg/Ha, no herbicide) of the same molecule?
The value was 0%.

And the “Percent Injury VELE” value ([1]; Insecticide 1 (H2O) (crystals scattered in-furrow) + Antidote 1 2 + Herbicide 1 2 Kg/Ha)?
Its value is 95%.

What about the “Percent Injury VELE” value ([1]; Insecticide 1 (H2O) (crystals scattered in-furrow) + Antidote 1 2 Kg/Ha) of the same molecule?
Its value is 0%.

And the “Percent Injury VELE” value ([1]; Insecticide 2 3.36 kg/ha + Antidote 1 0.14 + Herbicide 1 0.14 Kg/Ha)?
The value was 83%.

And the “Percent Injury VELE” value ([1]; Insecticide 2 3.36 kg/ha + Antidote 1 0.14 Kg/Ha, no herbicide)?
The value was 78%.

What about the “Percent Injury VELE” value ([1]; Insecticide 2 3.36 kg/ha + Antidote 1 0.56 + Herbicide 1 0.56 Kg/Ha) of the same molecule?
Its value is 92%.

And the “Percent Injury VELE” value ([1]; Insecticide 2 3.36 kg/ha + Antidote 1 0.56 Kg/Ha, no herbicide)?
The value was 33%.

And the “Percent Injury VELE” value ([1]; Insecticide 2 3.36 kg/ha + Antidote 1 2.24 + Herbicide 1 2.24 Kg/Ha)?
The value was 95%.

And the “Percent Injury VELE” value ([1]; Insecticide 2 3.36 kg/ha + Antidote 1 2.24 Kg/Ha, no herbicide)?
Its value is 0%.
